Data taken from ChEMBL document CHEMBL1147421, “Diamine derivatives with antiparasitic activities” (Bioorg Med Chem Lett, 2004).

Legend:
[1] = Effective concentration expressed as antiparasitic activity against Leishmania promastigotes (Leishmania donovani); NA = Not active; type: functional
Plasmodium falciparum [2] = assay: Antiparasitic activity against Plasmodium falciparum D6; type: functional, organism-based
Plasmodium falciparum [3] = assay: Antiparasitic activity against chloroquine-resistant Plasmodium falciparum W2; type: functional, organism-based

Structure (SMILES)	EC50 [1]	EC50 (Plasmodium falciparum [2])	EC50 (Plasmodium falciparum [3])	EC50 (Plasmodium falciparum [2]; Plasmodium falciparum) [µM]
NCCCN(Cc1ccncc1)Cc1ccncc1.O=C(O)C(F)(F)F	Not Active	Not Active	Not Active	–
COc1ccc(CN(CCCCN)Cc2ccc(OC)cc2OC)c(OC)c1.O=C(O)C(F)(F)F	Not Active	–	Not Active	7.76
NCCCN(Cc1ccccc1)Cc1ccc(Cc2ccncc2)cc1.O=C(O)C(F)(F)F	Not Active	Not Active	Not Active	–
COc1cc(CN(CCCN)Cc2ccc(O)c(OC)c2)ccc1O.O=C(O)C(F)(F)F	Not Active	Not Active	Not Active	–
